Laboratory results: the supplement of paper PMC10307832

Assays:
Test in all cases: relative viability (nuclei count vs DMSO), 5 days (fraction); higher = more cells survive
[1] = compound: COc1cc2nccc(Oc3ccc(NC(=O)C4(C(=O)Nc5ccc(F)cc5)CC4)cc3)c2cc1OC [Cabozantinib] + CC(C)C[C@H](NC(=O)[C@H](Cc1ccccc1)NC(=O)c1cnccn1)B(O)O [Bortezomib] (partner 0.002 µM)
Summary of the method: (§1)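 Cells from lung cancer lines were seeded into 1536-well plates and, one day later, dosed by pin tool. Treatments were either a single drug or a fixed dose of an anchor drug with five library-drug doses (not always all listed) in √10 steps. After 5 days, nuclei were stained in a one-step fixation (final 0.05% Triton X-100, 1% formaldehyde, 1 ug/ml Hoechst) and counted on 4× images, and relative viability is the treated-to-vehicle nuclei ratio, as the median of duplicate plates.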

Zosuquidar + Foretinib = compound: O[C@@H](COc1cccc2ncccc12)CN1CCN([C@@H]2c3ccccc3[C@@H]3[C@H](c4ccccc42)C3(F)F)CC1 [Zosuquidar] + COc1cc2c(Oc3ccc(NC(=O)C4(C(=O)Nc5ccc(F)cc5)CC4)cc3F)ccnc2cc1OCCCN1CCOCC1 [Foretinib] (partner 0.25 µM)
Summary of the method: as §1

Zosuquidar + Lapatinib = compound: O[C@@H](COc1cccc2ncccc12)CN1CCN([C@@H]2c3ccccc3[C@@H]3[C@H](c4ccccc42)C3(F)F)CC1 [Zosuquidar] + CS(=O)(=O)CCNCc1ccc(-c2ccc3ncnc(Nc4ccc(OCc5cccc(F)c5)c(Cl)c4)c3c2)o1 [Lapatinib] (partner 2 µM)
Summary of the method: as §1

Zosuquidar + Crizotinib = compound: O[C@@H](COc1cccc2ncccc12)CN1CCN([C@@H]2c3ccccc3[C@@H]3[C@H](c4ccccc42)C3(F)F)CC1 [Zosuquidar] + C[C@@H](Oc1cc(-c2cnn(C3CCNCC3)c2)cnc1N)c1c(Cl)ccc(F)c1Cl [Crizotinib] (partner 1 µM)
Summary of the method: as §1

| Cell Line | relative viability ([1]; first compound 0.02 µM) | relative viability ([1]; first compound 0.06325 µM) | relative viability ([1]; first compound 0.2 µM) | relative viability ([1]; first compound 0.6325 µM) | relative viability ([1]; first compound 2 µM) | relative viability (Zosuquidar + Foretinib; first compound 0.01 µM) | relative viability (Zosuquidar + Foretinib; first compound 0.03162 µM) | relative viability (Zosuquidar + Foretinib; first compound 0.1 µM) | relative viability (Zosuquidar + Foretinib; first compound 0.3162 µM) | relative viability (Zosuquidar + Foretinib; first compound 1 µM) | relative viability (Zosuquidar + Lapatinib; first compound 0.01 µM) | relative viability (Zosuquidar + Lapatinib; first compound 0.03162 µM) | relative viability (Zosuquidar + Lapatinib; first compound 0.1 µM) | relative viability (Zosuquidar + Lapatinib; first compound 0.3162 µM) | relative viability (Zosuquidar + Lapatinib; first compound 1 µM) | relative viability (Zosuquidar + Crizotinib; first compound 0.01 µM) | relative viability (Zosuquidar + Crizotinib; first compound 0.03162 µM) | relative viability (Zosuquidar + Crizotinib; first compound 0.1 µM) | relative viability (Zosuquidar + Crizotinib; first compound 0.3162 µM) | relative viability (Zosuquidar + Crizotinib; first compound 1 µM) |
| --- | --- | --- | --- | --- | --- | --- | --- | --- | --- | --- | --- | --- | --- | --- | --- | --- | --- | --- | --- | --- |
| HOP-62 | 0.779 | 0.828 | 0.56 | 1.07 | 1.06 | 1.09 | 1.25 | 1.01 | 1.1 | 1.08 | 0.862 | 1.05 | 0.951 | 1.07 | 1.07 | 0.829 | 1.01 | 0.85 | 1 | 0.864 |
| NCI-H2126 | 1.13 | 1.11 | 1.1 | 1.14 | 1.11 | 1.17 | 1.09 |  | 1.18 | 1.23 | 0.75 | 0.753 | 0.639 | 0.755 | 0.733 | 0.92 | 0.987 | 0.911 | 1.04 | 1.07 |
| SW 1573 | 1.23 | 1.05 | 1.09 | 0.951 | 0.875 | 0.976 | 0.888 | 1.07 | 1.05 | 0.879 | 1.09 | 0.985 | 1.08 | 1.4 | 1.01 | 0.873 | 0.728 | 0.791 | 0.775 | 0.833 |
| H3255 | 0.75 | 0.958 |  | 0.831 | 0.901 | 0.957 | 0.607 | 0.621 | 0.938 | 0.738 | 0.264 | 0.295 | 0.235 | 0.234 | 0.256 | 0.885 | 0.832 | 0.669 | 0.945 | 0.857 |
| EMC-BAC-2 | 0.982 | 1.2 | 1.01 | 1.07 | 1.17 | 0.965 | 1.11 | 0.995 | 1.06 | 0.985 | 0.852 | 0.925 | 0.816 | 0.986 | 0.954 | 0.78 | 0.724 | 0.767 | 0.843 | 0.765 |
| CAL-12T | 0.876 | 1.25 | 0.882 |  | 1.06 | 1.12 | 1.18 | 0.978 | 1.18 | 1.02 | 0.716 | 0.84 |  | 0.768 | 0.819 | 0.51 | 0.676 | 0.719 | 0.747 | 0.497 |
| NCI-H838 | 0.746 | 0.95 | 0.941 | 0.685 | 1.04 | 1.07 | 1 | 0.995 | 1.11 | 1.07 | 1.04 | 0.765 | 0.858 | 1.18 | 1.06 | 0.802 | 0.789 | 0.849 | 0.901 | 0.779 |
| EBC-1 | 0.673 | 0.484 | 0.221 | 0.245 | 0.173 | 0.121 | 0.106 | 0.093 | 0.095 | 0.097 | 0.215 | 0.234 | 0.206 | 0.198 | 0.226 | 0.193 | 0.214 | 0.201 | 0.201 | 0.205 |
